{
  "source": "patent US20030162759A1",
  "about": "“Aldosterone blocker therapy to prevent or treat inflammation-related disorders” (priority 2000, published 2003)",
  "key": {"[1]": {"tested_on": "aldosterone + salt treated rats", "assay": "Assay C: myocardial histopathology, semi-quantitative injury score 0 to 4", "assay_type": "in vivo, rat", "conditions": "for Myocardial Necrosis (0-4), Mean: group mean", "experimental": "The procedure of Assay B was expanded upon in a further study. […] Myocardial tissue from animals in each treatment group was examined after 7, 14, or 30 days of treatment. […] Lesions were preceded by the expression and progressive upregulation of proinflammatory molecules. […] Prior to surgery the animals were individually weighed and placed in one of the following groups: […] Potassium chloride supplementation was added to the saline solution in order to prevent the potential hypokalemia associated with aldosterone excess. […] Louis, Mo.) was inserted subcutaneously at the nape of the neck. Aldosterone was administered at a dose of […]. […] Animals were sacrificed from each group (n=8-13) after 7, 14, or 30 days of treatment. Following exsanguination, hearts and kidneys were isolated, removed, rinsed in cold phosphate-buffered saline, and blotted dry. […] The equatorial regions of the heart were routinely processed into paraffin with an automated tissue processor (Hypercenter XP, Shandon/Lipshaw Inc., Pittsburgh, Pa.) and embedded into fresh paraffin apical side down (Shandon Embedding Center, Shandon/Lipshaw Inc.). […] Ten m sections were stained with the collagen specific stain, Picrosirius Red F3BA (Saturated Picric Acid (Sigma Chemical, St. […] Waterbury, Conn.) (6). Mounted tissues were hydrated with water. […] Slides were coverslipped with #1 cover glass using Permount Histological Mounting Media (Fisher Scientific). Two slides mounted with 5 m sections were cut for each animal. One slide was processed for H&E staining and one for Periodic Acid Schiff (PAS) staining. The H&E and PAS were used for pathological scoring of the hearts. Semi-quantification of myocardial injury was performed as described previously with minor modifications (7). Briefly, a scale from 0 to 4 was used to score the level of myocardial injury. A score of 0 represented no damage. […] Myocardial necrosis was defined as the presence of necrotic changes in cardiomyocytes such as nuclear pyknosis or karyolysis, non-contracting marginal wavy fibers and hypereosinophilia of the cytoplasm, or clear evidence of destruction of the cardiomyocyte membrane."}, "Collagen I": {"tested_on": "Collagen I", "assay": "Assay C: Collagen I mRNA in left ventricle (TaqMan)", "assay_type": "in vivo, rat", "conditions": "for Collagen type-I message: 30 days, compared to vehicle+salt controls; for Collagen-I mRNA: individual rats", "experimental": "The procedure of Assay B was expanded upon in a further study. […] Myocardial tissue from animals in each treatment group was examined after 7, 14, or 30 days of treatment.\nPotassium chloride supplementation was added to the saline solution in order to prevent the potential hypokalemia associated with aldosterone excess.\nAt the time of the surgery, an Alzet 2002 osmotic minipump (Alza Corp., Palo Alto, Calif.) containing either vehicle (9% ethanol/87% propylene glycol/4% dH2O) or 1.0 mg/mL d-aldosterone (Sigma Chemical, St. Louis, Mo.) was inserted subcutaneously at the nape of the neck. Aldosterone was administered at a dose of 0.75 g/hour. […] Animals were sacrificed from each group (n=8-13) after 7, 14, or 30 days of treatment.\nFollowing exsanguination, hearts and kidneys were isolated, removed, rinsed in cold phosphate-buffered saline, and blotted dry. Kidneys were immediately bifurcated through the long axis with a razor blade and placed in 10% neutral buffered formalin (NBF, Richard-Allen Scientific, Kalamazoo, Mich.). For the hearts, the right ventricle (RV) was cut away from the left ventricle (LV), both ventricles were weighed using a Mettler AE163 balance (Mettler-Toledo, Inc., Hightstown, N.J.), and the RV was placed in 10% NBF. A 2 mm coronal slab of the LV apex was removed and frozen with dry ice/isopentane for analysis of gene expression and the remaining portion of the LV was placed in 10% NBF for fixation. Final wet trimming was completed after 3-4 days fixation where a second 2 mm coronal slab was removed for hydroxyproline analysis and a third 2 mm slab was removed from the equatorial region for histology.\nThe fluorogenic 5′-nuclease assay (TaqMan PCR) using Applied Biosystems' 7700 Sequence Detection System (Applied Biosystems, Foster City, Calif.) allowed for real time detection/quantitation of a specific gene by monitoring the increase in fluorescence of a gene-specific, dye-labeled oligonucleotide probe. Probes for target and reference genes were labeled at the 5′-end with a 6-carboxyfluorescein (6FAM) reporter dye and at the 3′-end with a 6-carboxy-N,N,N′,N′-tetramethylrhodamine (TAMRA) quencher dye. When the probe was annealed to the target gene, fluorescence of 6FAM was prevented by the close proximity of TAMRA. The exonuclease activity of Taq polymerase released the dyes from the oligonucleotide probe by displacing the probe from the target sequence resulting in fluorescence excitation in direct proportion to the amount of target message present. Data analysis was performed using the Sequence Detection System software from Applied Biosystems.\nPrimers and probes were designed using Oligo Primer Analysis Software, Version 5.0 (National Biosciences Inc. (NBI)-Wojciech Rychlik, Cascade, Colo.). Primers were synthesized by Life Technologies (Grand Island, N.Y.) and probes were synthesized by Applied Biosystems. Primer/probe sets were designed from known sequences of rat genes to be analyzed. All target gene values were normalized to a reference gene, constitutively expressed cyclophilin. Primer/probe sets sequences can be found in Table 8\nRNA was extracted from frozen (−70° C.) left ventricle (LV) tissue (approximately 10-20 mg) using 1.5 mL RNA-STAT 60 according to manufacturer's instructions (Leedo Medical Laboratories, Inc., Houston, Tex.). Briefly, tissues were homogenized using a tissue homogenizer equipped with a 5 mm probe (Ultra-Turrax T8 Homogenizer, IKA Works, Inc. Wilmington, N.C.). Following homogenization, an equal volume of molecular grade chloroform (Sigma Chemical Co., St. Louis, Mo.) was incubated with periodic mixing for 10 min at room temperature. Samples were centrifuged at 12,000 g for 10 min and RNA was precipitated from the top layer by adding an equal volume of molecular grade isopropanol (Sigma Chemical Co.) followed by an overnight incubation at −80° C."}},
  "note": "“And” between values parts separate entries of the source, which are not always exact repeats. Identical values can stand only once. “Also recorded” adds a separate entry of the source.",
  "data": [
    {"smiles": "C[C@]12CCC(=O)C=C1CC[C@@H]1[C@@H]2[C@@H](O)C[C@]2(C=O)[C@@H](C(=O)CO)CC[C@@H]12", "note": "[aldosterone]", "values": [
      {"measurement": "Myocardial Necrosis (0-4)", "setting": "[1]; Table 9.14, 7-day protocol, score 0-4, group Mean", "result": 0.0},
      {"measurement": "Myocardial Necrosis (0-4)", "setting": "[1]; Table 9.14, 7-day protocol, score 0-4, individual rats", "result": 0.0},
      {"measurement": "Myocardial Necrosis (0-4), Mean", "setting": "[1]; 14 days of treatment", "result": 0.8},
      {"measurement": "Myocardial Necrosis (0-4), Mean", "setting": "[1]; 30 days of treatment", "result": 2.0},
      {"measurement": "Myocardial Necrosis (0-4)", "setting": "[1]; mean ± SEM after 7 days of treatment, eplerenone 100 mg/kg/day", "result": "0.0 ± 0.0"},
      {"measurement": "Collagen type-I message", "setting": "Collagen I", "result": "modest increase"},
      {"measurement": "Collagen-I mRNA", "setting": "Collagen I; Table 9.14, 7-day protocol, listed as Aldosterone + salt", "result": "0.84 AU and 1.40 AU"},
      {"measurement": "Collagen-I mRNA", "setting": "Collagen I; 14 days of treatment, relative to cyclophilin expression, listed as Aldosterone + salt", "result": "0.25 AU and 1.00 AU and 1.20 AU and 1.70 AU and 0.43 AU"},
      {"measurement": "Collagen-I mRNA", "setting": "Collagen I; 30 days of treatment, relative to cyclophilin expression, listed as Aldosterone + salt", "result": 2.20, "unit": "AU"},
      {"measurement": "Collagen-I (collagen type I mRNA)", "setting": "Collagen I; mean ± SEM after 14 days of treatment, relative to cyclophilin expression", "result": "1.33 ± 0.24", "unit": "AU"}
    ]},
    {"smiles": "COC(=O)[C@@H]1CC2=CC(=O)CC[C@]2(C)[C@@]23O[C@@H]2C[C@@]2(C)[C@@H](CC[C@@]24CCC(=O)O4)[C@H]13", "note": "[eplerenone, Pregn-4-ene-7,21-dicarboxylic acid, 9,11-epoxy-17-hydroxy-3-oxo-, γ-lactone, methyl ester, (7α, 11α, 17β) -]", "values": [
      {"measurement": "Myocardial injury (vascular and myocardial damage, histopathology)", "setting": "[1]; 7, 14, 30 days, eplerenone 100 mg/kg/day", "result": "markedly attenuated myocardial injury at all time points; also recorded: markedly attenuated this initial vascular inflammatory response and subsequent myocardial injury"},
      {"measurement": "Myocardial Necrosis (0-4), Mean", "setting": "[1]; 14 days of treatment", "result": 0.5},
      {"measurement": "Myocardial Necrosis (0-4), Mean", "setting": "[1]; 30 days of treatment", "result": 0.0},
      {"measurement": "Myocardial Necrosis (0-4)", "setting": "[1]; individual rats, 14 days of treatment, eplerenone 100 mg/kg/day, listed as Eplerenone + aldosterone + salt", "result": 0.0},
      {"measurement": "Myocardial Necrosis (0-4)", "setting": "[1]; mean ± SEM after 30 days of treatment, eplerenone 100 mg/kg/day", "result": "0.0 ± 0.0"},
      {"measurement": "Collagen type-I message", "setting": "Collagen I", "result": "modest increase"},
      {"measurement": "Collagen-I mRNA, Mean", "setting": "Collagen I; group mean, 30 days of treatment", "result": 2.53, "unit": "AU"},
      {"measurement": "Collagen-I mRNA", "setting": "Collagen I; 14 days of treatment, relative to cyclophilin expression, listed as Eplerenone + aldosterone + salt", "result": "0.90 AU and 1.14 AU and 0.50 AU"},
      {"measurement": "Collagen-I mRNA", "setting": "Collagen I; 30 days of treatment, relative to cyclophilin expression, listed as Eplerenone + aldosterone + salt", "result": "2.98 AU and 2.90 AU"},
      {"measurement": "Collagen-I (collagen type I mRNA)", "setting": "Collagen I; mean ± SEM after 7 days of treatment, relative to cyclophilin expression", "result": "0.85 ± 0.15", "unit": "AU"}
    ]}
  ]
}
